Results reported in US11691970B2, “Pyrazolopyridinone compounds” (Janssen Pharmaceutica NV, priority 2017, dated 2023).
Where a name gives a salt, the structure may show the parent alone. Read-outs that look alike come from different tables or passages of the source.

Assays:
[1] = biological target: T1, human FGFR3 wild type enzyme (cytoplasmic domain) (Homo sapiens, UniProt P22607); test: FGFR3 wild type mobility shift assay (enzymatic assay); type: biochemical; settings: 75 μM ATP, 50 minutes at 30° C, Caliper EZ reader II
T1 construct: human FGFR3 wild type enzyme (cytoplasmic domain, from Carna Biosciences); purchased Carna Biosciences
T1 sequence (P22607 397-806 limits assumed): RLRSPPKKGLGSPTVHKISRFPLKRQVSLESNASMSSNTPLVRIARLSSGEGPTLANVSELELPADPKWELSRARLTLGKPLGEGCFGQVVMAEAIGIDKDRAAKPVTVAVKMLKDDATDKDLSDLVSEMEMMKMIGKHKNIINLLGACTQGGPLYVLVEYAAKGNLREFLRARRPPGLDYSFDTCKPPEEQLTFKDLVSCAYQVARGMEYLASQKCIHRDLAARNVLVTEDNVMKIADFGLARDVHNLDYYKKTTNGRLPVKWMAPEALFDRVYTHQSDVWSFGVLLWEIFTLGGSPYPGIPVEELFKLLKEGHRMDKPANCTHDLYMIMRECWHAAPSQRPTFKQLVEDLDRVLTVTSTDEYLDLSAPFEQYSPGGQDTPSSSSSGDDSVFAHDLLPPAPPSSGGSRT
Description: FGFR3 Wild Type Mobility Shift Assay (Enzymatic Assay)

[2] = test system: NIH/3T3 cells transfected with control vector; test: NIH/3T3 mock cell proliferation assay (counter assay, CellTiter Glo); type: cell-based; settings: Mus musculus, top concentration 30 μM, counter assay for general toxicity, read-out: NIH/3T3 MOCK CTG (IC50)
Description: NIH/3T3 Mock Cell Proliferation Assay
In day 1, 90 μL of cell suspension (NIH/3T3 cells transfected with the same control vector as in the above two proliferation assays) (total 30,000 cells per well in growth medium (DMEM containing 1% Glutamax, 10% FBS and 1% Pen/Strep)) was seeded in a 96-well plate and then incubated overnight at 37° C. and 5% CO2. In day 2, 10 μL of growth medium containing 10-fold stock solution of testing compound was added into cell cultures (9 dose points with 3× serial dilution, starting with 30 μM, 0.3% DMSO final). After 72-hr incubation at 37° C. and 5% CO2, in day 5 a volume of 50 μL CellTiter Glo (CTG) reagent was added into cell-containing 96-well plate and the plate was incubated at room temperature for 10 minutes before RLUs (relative light unit) were measured on a microplate reader with luminescence detection module.

[3] = biological target: T2, NIH/3T3 cells overexpressing FGFR3 WT-TACC3 fusion protein (Homo sapiens, UniProt P22607); test: NIH/3T3 FGFR3 WT-TACC3 cell proliferation assay (CellTiter Glo); type: cell-based; settings: 72-hr incubation, top concentration 10 μM, read-out: NIH/3T3 FGFR3 WT-TACC3 CTG (IC50)
T2 construct: NIH/3T3 FGFR3 WT-TACC3 CTG (IC50); other: 72-hr incubation, CellTiter Glo, top concentration 10 μM; fused on or other part: Q9Y6A5 (Transforming acidic coiled-coil-containing protein 3)
T2 sequence (P22607 whole entry, change not shown, the tested form may be a part): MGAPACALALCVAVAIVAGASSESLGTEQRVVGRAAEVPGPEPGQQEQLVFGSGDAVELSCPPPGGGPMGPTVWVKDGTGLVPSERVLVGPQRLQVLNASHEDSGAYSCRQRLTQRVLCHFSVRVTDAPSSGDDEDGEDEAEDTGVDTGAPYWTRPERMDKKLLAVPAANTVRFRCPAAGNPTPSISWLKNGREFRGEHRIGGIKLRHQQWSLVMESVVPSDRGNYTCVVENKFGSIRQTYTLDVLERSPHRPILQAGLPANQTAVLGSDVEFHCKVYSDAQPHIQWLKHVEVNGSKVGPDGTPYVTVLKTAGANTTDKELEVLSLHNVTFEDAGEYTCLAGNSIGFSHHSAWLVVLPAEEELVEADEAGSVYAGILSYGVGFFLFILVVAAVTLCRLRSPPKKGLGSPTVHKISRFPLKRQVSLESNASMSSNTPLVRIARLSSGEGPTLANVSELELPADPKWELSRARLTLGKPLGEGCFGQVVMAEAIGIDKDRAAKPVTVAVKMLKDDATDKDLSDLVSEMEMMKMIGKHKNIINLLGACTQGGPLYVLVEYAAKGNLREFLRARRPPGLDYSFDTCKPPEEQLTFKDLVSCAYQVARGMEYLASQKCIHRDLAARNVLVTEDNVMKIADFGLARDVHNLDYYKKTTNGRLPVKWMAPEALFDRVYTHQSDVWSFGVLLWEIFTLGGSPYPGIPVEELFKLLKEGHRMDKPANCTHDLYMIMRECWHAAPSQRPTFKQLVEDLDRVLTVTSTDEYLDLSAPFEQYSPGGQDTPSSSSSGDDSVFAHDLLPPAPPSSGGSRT
Description: NIH/3T3 FGFR3 WT-TACC3 Cell Proliferation Assay
In day 1, 90 μL of cell suspension (NIH/3T3 cells overexpressing FGFR3 WT-TACC3 fusion protein) (total 30,000 cells per well in growth medium (DMEM containing 1% Glutamax, 10% FBS and 1% Pen/Strep)) was seeded in a 96-well plate and then incubated overnight at 37° C. and 5% CO2. […] After 72-hr incubation at 37° C. and 5% CO2, in day 5 a volume of 50 μL CellTiter Glo (CTG) reagent was added into cell-containing 96-well plate and the plate was incubated at room temperature for 10 minutes before RLUs (relative light unit) were measured on a microplate reader with luminescence detection module.

Row | SMILES | IC50 [1] [nM] | IC50 ([2]; NIH3T3, 72 h, 72-hr incubation) [nM] | GI50 [3] [nM] | IC50 ([2]; NIH3T3, 72-hr incubation) [nM]
1 | C[C@H](Nc1c(-c2nc3ccc(N4CCO[C@H](C(F)(F)F)C4)cc3[nH]2)c(=O)[nH]c2cn(C)nc12)c1ncccn1 (relative stereo) [Compound 8, 2-Methyl-7-(((S*)-1-(pyrimidin-2-yl)ethyl)amino)-6-(6-((S*)-2-(trifluoromethyl)-morpholino)-1H-benzo[d]imidazol-2-yl)-2H-pyrazolo[4,3-b]pyridin-5(4H)-one] | 0.542 | 444 | 6.78 | –
2 | C[C@H](Nc1c(-c2nc3ccc(C4CCOCC4)c(F)c3[nH]2)c(=O)[nH]c2cn(C)nc12)c1ncccn1 [Compound 13, (S)-6-(7-fluoro-6-(tetrahydro-2H-pyran-4-yl)-1H-benzo[d]imidazol-2-yl)-2-methyl-7-((1-(pyrimidin-2-yl)ethyl)amino)-2H-pyrazolo[4,3-b]pyridin-5(4H)-one] | 1.15 | 2100 | 22.1 | –
3 | CC(Nc1c(-c2nc3ccc(N4C[C@@H](C)O[C@H](C)C4)cc3[nH]2)c(=O)[nH]c2cn(C)nc12)c1ncccn1 (single isomer, unassigned) [Compound 12, 6-(6-((2R,6R)-2,6-dimethylmorpholino)-1H-benzo[d]imidazol-2-yl)-2-methyl-7-(((S*)-1-(pyrimidin-2-yl)ethyl)amino)-2H-pyrazolo[4,3-b]pyridin-5(4H)-one] | – | – | – | 454
4 | CC(Nc1c(-c2nc3cc(C(F)(F)F)c(N4CCOCC4)cc3[nH]2)c(=O)[nH]c2cn(C)nc12)c1ncccn1 (racemic) [Compound 19, (Rac)-2-Methyl-6-(6-morpholino-5-(trifluoromethyl)-1H-benzo[d]imidazol-2-yl)-7-((1-(pyrimidin-2-yl)ethyl)amino)-2H-pyrazolo[4,3-b]pyridin-5(4H)-one] | 8.17 | 3990 | 21.5 | –
5 | CCn1cc2[nH]c(=O)c(-c3nc4cc(C)c(N5CCOCC5)cc4[nH]3)c(N[C@@H](C)c3ncccn3)c2n1 [Compound 5, (S)-2-ethyl-6-(5-methyl-6-morpholino-1H-benzo[d]imidazol-2-yl)-7-((1-(pyrimidin-2-yl)-ethyl)amino)-2,4-dihydro-5H-pyrazolo[4,3-b]pyridin-5-one] | 1.78 | 1050 | 19.7 | –
6 | CCn1cc2[nH]c(=O)c(-c3nc4c(F)cc(N5CCN(C)CC5)cc4[nH]3)c(N[C@@H](C)c3ncccn3)c2n1 [Compound 48, (S)-2-ethyl-6-(4-fluoro-6-(4-methylpiperazin-1-yl)-1H-benzo[d]imidazol-2-yl)-7-((1-(pyrimidin-2-yl)ethyl)amino)-2H-pyrazolo[4,3-b]pyridin-5(4H)-one] | 0.738 | 352 | 9.04 | –
7 | CC(Nc1c(-c2nc3cc(C(F)(F)F)c(N4CCOCC4)cc3[nH]2)c(=O)[nH]c2cn(C)nc12)c1cocn1 (single isomer, unassigned) [Compound 10, (S*)-2-methyl-6-(6-morpholino-5-(trifluoromethyl)-1H-benzo[d]imidazol-2-yl)-7-((1-(oxazol-4-yl)ethyl)amino)-2H-pyrazolo[4,3-b]pyridin-5(4H)-one] | – | – | – | 18400
8 | CCC(Nc1c(-c2nc3ccc(N4CCOCC4)cc3[nH]2)c(=O)[nH]c2cn(C)nc12)c1ncccn1 (single isomer, unassigned) [Compound 40, (R*)-2-methyl-6-(6-morpholino-1H-benzo[d]imidazol-2-yl)-7-((1-(pyrimidin-2-yl)-propyl)amino)-2H-pyrazolo[4,3-b]pyridin-5(4H)-one] | 531 | – | – | –
9 | CCn1cc2[nH]c(=O)c(-c3nc4ccc(N5CCOCC5)cc4[nH]3)c(NC(C)c3cocn3)c2n1 (single isomer, unassigned) [Compound 4B, (R*)-2-ethyl-6-(6-morpholino-1H-benzo[d]imidazol-2-yl)-7-((1-(oxazol-4-yl)ethyl)-amino)-2H-pyrazolo[4,3-b]pyridin-5(4H)-one] | 657 | – | – | –
10 | C[C@H](Nc1c(-c2nc3cnc(N4CCOCC4)cc3[nH]2)c(=O)[nH]c2cn(C)nc12)c1cocn1 [Compound 56, (S)-2-methyl-6-(6-morpholino-1H-imidazo[4,5-c]pyridin-2-yl)-7-((1-(oxazol-4-yl)ethyl)-amino)-2,4-dihydro-5H-pyrazolo[4,3-b]pyridin-5-one] | 156 | – | – | –
11 | CC(Nc1c(-c2nc3cc(C(F)(F)F)c(N4CCOCC4)cc3[nH]2)c(=O)[nH]c2cn(C)nc12)c1ncccn1 (single isomer, unassigned) [Compound 20, (S*)2-Methyl-6-(6-morpholino-5-(trifluoromethyl)-1H-benzo[d]imidazol-2-yl)-7-((1-(pyrimidin-2-yl)ethyl)amino)-2H-pyrazolo[4,3-b]pyridin-5(4H)-one] | 1240 | – | – | –
12 | COCC(Nc1c(-c2nc3c(F)cc(N4CCOCC4)cc3[nH]2)c(=O)[nH]c2cn(C)nc12)c1ncccn1 (single isomer, unassigned) [Compound 30, (R*)-6-(4-fluoro-6-morpholino-1H-benzo[d]imidazol-2-yl)-7-((2-methoxy-1-(pyrimidin-2-yl)ethyl)amino)-2-methyl-2H-pyrazolo[4,3-b]pyridin-5(4H)-one] | 469 | – | – | –
13 | COc1cc(N2CCOCC2)cc2[nH]c(-c3c(NC(C)c4ncccn4)c4nn(C)cc4[nH]c3=O)nc12 (single isomer, unassigned) [Compound 50, (R*)-6-(4-methoxy-6-morpholino-1H-benzo[d]imidazol-2-yl)-2-methyl-7-((1-(pyrimidin-2-yl)ethyl)amino)-2,4-dihydro-5H-pyrazolo[4,3-b]pyridin-5-one] | 95.7 | – | – | –
14 | Cc1cc2nc(-c3c(N[C@@H](C)c4cocn4)c4nn(C)cc4[nH]c3=O)[nH]c2cc1N1CCOCC1 [Compound 55, (S)-2-methyl-6-(5-methyl-6-morpholino-1H-benzo[d]imidazol-2-yl)-7-((1-(oxazol-4-yl)-ethyl)amino)-2H-pyrazolo[4,3-b]pyridin-5(4H)-one] | 811 | – | – | –
15 | CC(Nc1c(-c2nc3ccc(N4CCCCC4)c(F)c3[nH]2)c(=O)[nH]c2cn(C)nc12)c1ncccn1 (single isomer, unassigned) [Compound 16, (R*)-6-(7-fluoro-6-(piperidin-1-yl)-1H-benzo[d]imidazol-2-yl)-2-methyl-7-((1-(pyrimidin-2-yl)ethyl)amino)-2H-pyrazolo[4,3-b]pyridin-5(4H)-one] | 38.1 | – | – | –
16 | CC(Nc1c(-c2nc3ccc(N4CCCCC4)cc3[nH]2)c(=O)[nH]c2cn(C)nc12)c1ncccn1 (single isomer, unassigned) [Compound 35, (R*)-2-methyl-6-(6-(piperidin-1-yl)-1H-benzo[d]imidazol-2-yl)-7-((1-(pyrimidin-2-yl)-ethyl)amino)-2H-pyrazolo[4,3-b]pyridin-5(4H)-one] | 39.2 | – | – | –
17 | CC[C@H](Nc1c(-c2nc3ccc(N4CCOCC4)cc3[nH]2)c(=O)[nH]c2cn(CC)nc12)c1ncccn1 (single isomer, unassigned) [Compound 3, (S*)-2-ethyl-6-(6-morpholino-1H-benzo[d]imidazol-2-yl)-7-((1-(pyrimidin-2-yl)propyl)-amino)-2H-pyrazolo[4,3-b]pyridin-5(47f)-one] | 88.3 | – | – | –
18 | C[C@H](Nc1c(-c2nc3c(F)cc(N4CCOCC4)c(F)c3[nH]2)c(=O)[nH]c2cn(C)nc12)c1ncccn1 (single isomer, unassigned) [Compound 17, (S*)-6-(4,7-difluoro-6-morpholino-1H-benzo[d]imidazol-2-yl)-2-methyl-7-((1-(pyrimidin-2-yl)ethyl)amino)-2H-pyrazolo[4,3-b]130pyridine-5(4H)-one] | 46.5 | – | – | –
19 | C[C@H](Nc1c(-c2nc3ccc(N4CCN(C)CC4)cc3[nH]2)c(=O)[nH]c2cn(C)nc12)c1ncccc1C(F)(F)F (single isomer, unassigned) [Compound 31, (S*)-2-methyl-6-(6-(4-methylpiperazin-1-yl)-1H-benzo[d]imidazol-2-yl)-7-((1-(3-(trifluoromethyl)pyridin-2-yl)ethyl)amino)-2H-pyrazolo[4,3-b]pyridin-5(4H)-one 0.3 formate] | 120 | – | – | –
20 | CC(Nc1c(-c2nc3ccc(OC4CCOCC4)cc3[nH]2)c(=O)[nH]c2cn(C)nc12)c1cocn1 (single isomer, unassigned) [Compound 37, (R*)-2-methyl-7-((1-(oxazol-4-yl)ethyl)amino)-6-(6-((tetrahydro-2H-pyran-4-yl)oxy)-1H-benzo[d]imidazol-2-yl)-2H-pyrazolo[4,3-b]pyridin-5(4H)-one] | 71.7 | – | – | –
